Values of other authors as cited in PubChem BioAssay AID1259409 (Chemical Carcinogenesis Research Information System (CCRIS), 2018).

System: rodent chemically induced tumor inhibition, incidence and multiplicity
Assay: CCRIS tumor inhibitor studies
Conditions: for tumour outcome (control, treated, inhibition, significance): Species: RAT

C=C1CC[C@H](O)C/C1=C/C=C1\CCC[C@]2(C)[C@@H]([C@H](C)CC[C@@H](O)C(C)(C)O)CC[C@@H]12
tumour outcome (control, treated, inhibition, significance) (Carcinogen: N-N-DIETHYLNITROSAMINE [55-18-5], N-METHYL-N-NITROSOUREA [684-93-5], N,N'-DIMETHYLHYDRAZINE [540-73-8], N-BUTYL-N-(4-HYD, Carcinogen: N-N-DIETHYLNITROSAMINE [55-18-5], N-METHYL-N-NITROSOUREA [684-93-5], N,N'-DIMETHYLHYDRAZINE [540-73-8], N-BUTYL-N-(4-HYD, Dose [Inhibitor]: 1 PPM IN DIET FOR 25 WK BEGINNING 1 WK POST LAST CARCINOGEN DOSE (STUDY DURATION: 30 WK), Route [Inhibitor]: ORAL, Strain/Sex: F344/MALE, Target Tissue: Type of Lesion: COLON: ADENOCARCINOMA, Dose [Carcinogen]: 100 MG/KG BW DEN IP ONCE ON DAY 0, 20 MG/KG BW MNU IP 4X ON DAYS 2, 5, 8, 11, 40 MG/KG BW DMH SC ON DAYS 14, 17, 20, 23;, Dose [Carcinogen]: 100 MG/KG BW DEN IP ONCE ON DAY 0, 20 MG/KG BW MNU IP 4X ON DAYS 2, 5, 8, 11, 40 MG/KG BW DMH SC ON DAYS 14, 17, 20, 23;, Promoter: NONE): 14/18 (77.8%), 10/14 (71.4%), 8%, not significant
tumour outcome (control, treated, inhibition, significance) (Carcinogen: N-N-DIETHYLNITROSAMINE [55-18-5], N-METHYL-N-NITROSOUREA [684-93-5], N,N'-DIMETHYLHYDRAZINE [540-73-8], N-BUTYL-N-(4-HYD, Carcinogen: N-N-DIETHYLNITROSAMINE [55-18-5], N-METHYL-N-NITROSOUREA [684-93-5], N,N'-DIMETHYLHYDRAZINE [540-73-8], N-BUTYL-N-(4-HYD, Dose [Inhibitor]: 1 PPM IN DIET FOR 25 WK BEGINNING 1 WK POST LAST CARCINOGEN DOSE (STUDY DURATION: 30 WK), Route [Inhibitor]: ORAL, Strain/Sex: F344/MALE, Target Tissue: Type of Lesion: COLON: ADENOMA, Dose [Carcinogen]: 100 MG/KG BW DEN IP ONCE ON DAY 0, 20 MG/KG BW MNU IP 4X ON DAYS 2, 5, 8, 11, 40 MG/KG BW DMH SC ON DAYS 14, 17, 20, 23;, Dose [Carcinogen]: 100 MG/KG BW DEN IP ONCE ON DAY 0, 20 MG/KG BW MNU IP 4X ON DAYS 2, 5, 8, 11, 40 MG/KG BW DMH SC ON DAYS 14, 17, 20, 23;, Promoter: NONE): 6/18 (33.3%), 3/14 (21.4%), 36%, not significant
tumour outcome (control, treated, inhibition, significance) (Carcinogen: N-N-DIETHYLNITROSAMINE [55-18-5], N-METHYL-N-NITROSOUREA [684-93-5], N,N'-DIMETHYLHYDRAZINE [540-73-8], N-BUTYL-N-(4-HYD, Carcinogen: N-N-DIETHYLNITROSAMINE [55-18-5], N-METHYL-N-NITROSOUREA [684-93-5], N,N'-DIMETHYLHYDRAZINE [540-73-8], N-BUTYL-N-(4-HYD, Dose [Inhibitor]: 5 PPM IN DIET FOR 25 WK BEGINNING 1 WK POST LAST CARCINOGEN DOSE (STUDY DURATION: 30 WK), Route [Inhibitor]: ORAL, Strain/Sex: F344/MALE, Target Tissue: Type of Lesion: COLON: ADENOCARCINOMA, Dose [Carcinogen]: 100 MG/KG BW DEN IP ONCE ON DAY 0, 20 MG/KG BW MNU IP 4X ON DAYS 2, 5, 8, 11, 40 MG/KG BW DMH SC ON DAYS 14, 17, 20, 23;, Dose [Carcinogen]: 100 MG/KG BW DEN IP ONCE ON DAY 0, 20 MG/KG BW MNU IP 4X ON DAYS 2, 5, 8, 11, 40 MG/KG BW DMH SC ON DAYS 14, 17, 20, 23;, Promoter: NONE): 14/18 (77.8%), 5/14 (35.7%), 54%, p<0.05
tumour outcome (control, treated, inhibition, significance) (Carcinogen: N-N-DIETHYLNITROSAMINE [55-18-5], N-METHYL-N-NITROSOUREA [684-93-5], N,N'-DIMETHYLHYDRAZINE [540-73-8], N-BUTYL-N-(4-HYD, Carcinogen: N-N-DIETHYLNITROSAMINE [55-18-5], N-METHYL-N-NITROSOUREA [684-93-5], N,N'-DIMETHYLHYDRAZINE [540-73-8], N-BUTYL-N-(4-HYD, Dose [Inhibitor]: 5 PPM IN DIET FOR 25 WK BEGINNING 1 WK POST LAST CARCINOGEN DOSE (STUDY DURATION: 30 WK), Route [Inhibitor]: ORAL, Strain/Sex: F344/MALE, Target Tissue: Type of Lesion: COLON: ADENOMA, Dose [Carcinogen]: 100 MG/KG BW DEN IP ONCE ON DAY 0, 20 MG/KG BW MNU IP 4X ON DAYS 2, 5, 8, 11, 40 MG/KG BW DMH SC ON DAYS 14, 17, 20, 23;, Dose [Carcinogen]: 100 MG/KG BW DEN IP ONCE ON DAY 0, 20 MG/KG BW MNU IP 4X ON DAYS 2, 5, 8, 11, 40 MG/KG BW DMH SC ON DAYS 14, 17, 20, 23;, Promoter: NONE): 6/18 (33.3%), 0/14 (0.0%), 100%, not significant

CCC(=O)O[C@H]1CC[C@H]2[C@@H]3CCC4=CC(=O)CC[C@]4(C)[C@H]3CC[C@]12C
tumour outcome (control, treated, inhibition, significance) (Carcinogen: CADMIUM CHLORIDE, 10108-64-2, Dose [Inhibitor]: APPROXIMATELY NORMAL CIRCULATING LEVELS OF TESTOSTERONE BEGINNING 2 WK PRIOR TO CARCINOGEN TREATMENT, IMPLANTS REPLACED, Route [Inhibitor]: SUBCUTANEOUS IMPLANT, Strain/Sex: F344/MALE, Target Tissue: Type of Lesion: HEMATOPOIETIC SYSTEM: LEUKEMIA, Dose [Carcinogen]: 20 UMOL 1/WK FOR 5 WK, Promoter: NONE USED): 9/40 (23%), 10/37 (27%), -17%, not significant
tumour outcome (control, treated, inhibition, significance) (Carcinogen: CADMIUM CHLORIDE, 10108-64-2, Dose [Inhibitor]: APPROXIMATELY NORMAL CIRCULATING LEVELS OF TESTOSTERONE BEGINNING 2 WK PRIOR TO CARCINOGEN TREATMENT, IMPLANTS REPLACED, Route [Inhibitor]: SUBCUTANEOUS IMPLANT, Strain/Sex: F344/MALE, Target Tissue: Type of Lesion: INJECTION SITE: SARCOMA, Dose [Carcinogen]: 20 UMOL 1/WK FOR 5 WK, Promoter: NONE USED): 28/40 (70%), 22/37 (59%), 16%, not significant
tumour outcome (control, treated, inhibition, significance) (Carcinogen: CADMIUM CHLORIDE, 10108-64-2, Dose [Inhibitor]: APPROXIMATELY NORMAL CIRCULATING LEVELS OF TESTOSTERONE BEGINNING 2 WK PRIOR TO CARCINOGEN TREATMENT, IMPLANTS REPLACED, Route [Inhibitor]: SUBCUTANEOUS IMPLANT, Strain/Sex: F344/MALE, Target Tissue: Type of Lesion: TESTES: TUMOR, Dose [Carcinogen]: 20 UMOL 1/WK FOR 5 WK, Promoter: NONE USED): 34/40 (85%), 0/37 (0%), 100%, p<0.05
tumour outcome (control, treated, inhibition, significance) (Carcinogen: N-NITROSOBIS(2-OXOPROPYL)AMINE, 60599-38-4, Dose [Inhibitor]: 0, 40 MG PELLET INSERTED IN THE INTERSCAPULAR REGION AND REPLACED EVERY 6 WK FOR LIFE BEGINNING POST LAST CARCINOGEN DOS, Route [Inhibitor]: SUBCUTANEOUS, Strain/Sex: MRC/MALE, Target Tissue: Type of Lesion: COLON: TUMOR, Dose [Carcinogen]: 10 MG/KG 1/WK FOR 20 WK, Promoter: NONE USED): 2/26 (8%), 1/24 (4%), 50%, not calculated
tumour outcome (control, treated, inhibition, significance) (Carcinogen: N-NITROSOBIS(2-OXOPROPYL)AMINE, 60599-38-4, Dose [Inhibitor]: 0, 40 MG PELLET INSERTED IN THE INTERSCAPULAR REGION AND REPLACED EVERY 6 WK FOR LIFE BEGINNING POST LAST CARCINOGEN DOS, Route [Inhibitor]: SUBCUTANEOUS, Strain/Sex: MRC/MALE, Target Tissue: Type of Lesion: RECTUM: TUMOR, Dose [Carcinogen]: 10 MG/KG 1/WK FOR 20 WK, Promoter: NONE USED): 9/26 (35%), 14/24 (58%), -66%, not calculated
tumour outcome (control, treated, inhibition, significance) (Carcinogen: N-NITROSOBIS(2-OXOPROPYL)AMINE, 60599-38-4, Dose [Inhibitor]: 0, 40 MG PELLET INSERTED IN THE INTERSCAPULAR REGION AND REPLACED EVERY 6 WK FOR LIFE BEGINNING WITH FIRST CARCINOGEN DO, Route [Inhibitor]: SUBCUTANEOUS, Strain/Sex: MRC/MALE, Target Tissue: Type of Lesion: COLON: TUMOR, Dose [Carcinogen]: 10 MG/KG 1/WK FOR 20 WK, Promoter: NONE USED): 2/26 (8%), 0/29 (0%), 100%, not calculated
tumour outcome (control, treated, inhibition, significance) (Carcinogen: N-NITROSOBIS(2-OXOPROPYL)AMINE, 60599-38-4, Dose [Inhibitor]: 0, 40 MG PELLET INSERTED IN THE INTERSCAPULAR REGION AND REPLACED EVERY 6 WK FOR LIFE BEGINNING WITH FIRST CARCINOGEN DO, Route [Inhibitor]: SUBCUTANEOUS, Strain/Sex: MRC/MALE, Target Tissue: Type of Lesion: RECTUM: TUMOR, Dose [Carcinogen]: 10 MG/KG 1/WK FOR 20 WK, Promoter: NONE USED): 9/26 (35%), 0/29 (0%), 100%, p<0.005
tumour outcome (control, treated, inhibition, significance) (Carcinogen: N-NITROSOBIS(2-OXOPROPYL)AMINE, 60599-38-4, Dose [Inhibitor]: 0, 40 MG PELLET INSERTED IN THE INTERSCAPULAR REGION AND REPLACED EVERY 6 WK FOR LIFE BEGINNING WITH FIRST CARCINOGEN DO, Route [Inhibitor]: SUBCUTANEOUS, Strain/Sex: MRC/MALE, Target Tissue: Type of Lesion: RECTUM: TUMOR, Dose [Carcinogen]: 20 MG/KG 1/D FOR 3 D, Promoter: NONE USED): 6/13 (46%), 0/25 (0%), 100%, p<0.005

Oc1ccc(/C=C/c2cc(O)cc(O)c2)cc1
outcome (Carcinogen: Diethylnitrosamine, 55-18-5, Dose [Inhibitor]: 0, 50, 100, 300 mg/kg bw for 20 wk, Dose [Inhibitor]: 0, 50, 100, 300 mg/kg bw for 20 wk, Route [Inhibitor]: Oral (diet), Species: Rat, Strain/Sex: Sprague-Dawley/Female, Target Tissue: Type of Lesion: Liver: nodules, Dose [Carcinogen]: 200 mg/kg bw once in peanut oil after 4 wk on diet, study duration 20 wk, Promoter: Phenobarbital, 50-06-6): 100%; 78%; 50% (p<0.05); 40% (p<0.05)
